Test results from US20240025862A1, “SUBSTITUTED N-PHENYLURACILS AND SALTS THEREOF, AND USE THEREOF AS HERBICIDAL ACTIVE SUBSTANCES” (Bayer Aktiengesellschaft, priority 2020, published 2024).

What was measured:
Format in all cases: in vivo
Viola tricolor (VIOTR) = test: Post-emergence herbicidal action, greenhouse pot test
Protocol: (§1) Seeds of monocotyledonous and dicotyledonous weeds and crop plants were placed in sandy loam in plastic or wood-fiber pots, covered with soil and cultivated in a greenhouse under controlled growth conditions. 2 to 3 weeks after sowing, the test plants were treated at the one-leaf stage. The compounds of the invention, formulated in the form of wettable powders (WP) or as emulsion concentrates (EC), were then sprayed onto the green parts of the plants as aqueous suspension or emulsion with addition of 0.5% additive at a water application rate of 600 l/ha (converted). After the test plants had been kept in the greenhouse under optimum growth conditions for about 3 weeks, the activity of the preparations was rated visually in comparison to untreated controls. For example, 100% activity=the plants have died, 0% activity=like control plants.
(§2) Tables A1 to A14 below show the effects of selected compounds of the general formula (I) according to Tables I.1 to I.33 on various harmful plants and at an application rate corresponding to 20 g/ha and less, which were obtained by the experimental method specified above. The appendices “a”, “b” and “c” give differentiation by different dosage with otherwise the same harmful plants tested.

[1] = test system: Pharbitis purpurea (PHBPU); test: as above
Protocol: as §1, §2

[2] = test system: Amaranthus retroflexus (AMARE); test: as above; conditions: rated visually after about 3 weeks vs untreated controls, 100% = plants have died
Protocol: as §1, §2

[3] = test system: Polygonum convolvulus (POLCO); test: as above
Protocol: as §1, §2

[4] = test system: Abutilon theophrasti (ABUTH); test: as above; conditions: rated visually after about 3 weeks vs untreated controls, 100% = plants have died
Protocol: as §1, §2

Veronica persica (VERPE) = test: as above
Protocol: as §1, §2

Oryza sativa (ORYSA) = test: Post-emergence crop plant compatibility, greenhouse pot test (also comparative test C); conditions: for Post-emergence action against ORYSA (crop plant compatibility): vs untreated controls
Protocol: as §1
(§3) The observed effects on selected crop plants are reported here in comparison to the untreated controls (values in %). The appendices “a”, “b” and “c” give differentiation by different dosage with otherwise the same crop plants tested.
(§4) C. Comparative Herbicidal Action and Crop Plant Compatibility of Two Inventive Compounds (I.7-1 and I.7-115) with a Compound of Similar Structure Known from the Literature (WO2002/098227, a-17 and EP1106607, 3-14) in Post-Emergence Treatment.

Zea mays (ZEAMX) = test: Post-emergence crop plant compatibility, greenhouse pot test; conditions: 1.25 g/ha, vs untreated controls
Protocol: as §1, §3

[5] = test system: Triticum aestivum (TRZAS); test: as above; conditions: vs untreated controls
Protocol: as §1, §3

[6] = test system: Matricaria inodora (MATIN); test: Post-emergence herbicidal action, greenhouse pot test (also comparative test C)
Protocol: as §1, §2, §4
(§5) Tables C1-C4 below show the effects of two inventive compounds (I.7-1 and I.7-115) together with a compound of similar structure known from the literature (a-17 in WO2002/098227, and 3-14 in EP1106607) in different crop plants at an application rate corresponding to 5 g/ha or less, which have been obtained by the aforementioned experimental procedure.

Setaria viridis (SETVI) = test: as above; conditions: for Post-emergence action against SETVI: 20 g/ha
Protocol: as §1, §2, §4, §5

[7] = test system: Echinochloa crus-galli (ECHCG); test: as above
Protocol: as §1, §2, §4, §5

[8] = test system: Alopecurus myosuroides (ALOMY); test: as above; conditions: rated visually after about 3 weeks vs untreated controls, 100% = plants have died
Protocol: as §1, §2, §4, §5

Avena fatua (AVEFA) = test: Post-emergence herbicidal action, greenhouse pot test; conditions: 20 g/ha, rated visually after about 3 weeks vs untreated controls, 100% = plants have died
Protocol: as §1, §2

Row | Structure (SMILES) | Post-emergence action against ORYSA (crop plant compatibility) (Oryza sativa (ORYSA); 1.25 g/ha) | Post-emergence action against TRZAS (crop plant compatibility) ([5]; 1.25 g/ha) | Post-emergence action against VIOTR (Viola tricolor (VIOTR); 1.25 g/ha) | Post-emergence action against VIOTR (Viola tricolor (VIOTR); 5 g/ha) | Post-emergence action against VIOTR (Viola tricolor (VIOTR); 20 g/ha) | Post-emergence action against PHBPU in % ([1]; dosage 5 g/ha) | Post-emergence action against PHBPU in % ([1]; dosage 20 g/ha) | Post-emergence action at 5 g/ha against AMARE in % [2] | Post-emergence action at 20 g/ha against AMARE in % [2] | Post-emergence action against POLCO in % ([3]; dosage 5 g/ha) | Post-emergence action against POLCO in % ([3]; dosage 20 g/ha) | Post-emergence action at 1.25 g/ha against ABUTH in % [4] | Post-emergence action at 5 g/ha against ABUTH in % [4] | Post-emergence action at 20 g/ha against ABUTH in % [4] | Post-emergence action against VERPE (Veronica persica (VERPE); 1.25 g/ha) | Post-emergence action against VERPE (Veronica persica (VERPE); 5 g/ha) | Post-emergence action against VERPE (Veronica persica (VERPE); 20 g/ha) | Post-emergence action against MATIN in % ([6]; dosage 20 g/ha) | Post-emergence action against SETVI (Setaria viridis (SETVI)) | Post-emergence action against SETVI in % (Setaria viridis (SETVI); dosage 1.25 g/ha) | other results
1 | Cn1c(C(F)(F)F)cc(=O)n(-c2cc(Oc3ccccc3OCC(=O)OCCC[N+](=O)[O-])c(Cl)cc2F)c1=O [I.7-339] | 0% | 0% | 100% | 100% | 100% | 100% | 100% | 100% | 100% | 100% | 100% | 90% | 100% | 100% | 80% | 100% | 100% | 100% | 100% | 100% | Post-emergence action against PHBPU in % ([1]; dosage 1.25 g/ha): 100%; Post-emergence action at 1.25 g/ha against AMARE in % [2]: 100%; Post-emergence action against ORYSA (crop plant compatibility) (Oryza sativa (ORYSA); 5 g/ha): 10%; Post-emergence action against ZEAMX (crop plant compatibility) (Zea mays (ZEAMX)): 20%; Post-emergence action against TRZAS (crop plant compatibility) ([5]; 5 g/ha): 20%; Post-emergence action against MATIN in % ([6]; dosage 5 g/ha): 100%; Post-emergence action against SETVI in % (Setaria viridis (SETVI); dosage 5 g/ha): 100%; Post-emergence action against ECHCG in % ([7]; dosage 5 g/ha): 100%; Post-emergence action against ECHCG in % ([7]; dosage 20 g/ha): 100%; Post-emergence action at 5 g/ha against ALOMY in % [8]: 100%; Post-emergence action at 20 g/ha against ALOMY in % [8]: 100%
2 | COCCOC(=O)COc1ccc(F)cc1Oc1cc(-n2c(=O)cc(C(F)(F)F)n(C)c2=O)c(F)cc1Cl [I.23-1] | 0% | 20% | 80% | 100% | 100% | 80% | 80% | 100% | 100% | 100% | 100% | 100% | 100% | 100% | 80% | 100% | 100% | 100% | 100% | 100% | Post-emergence action against POLCO in % ([3]; dosage 1.25 g/ha): 90%; Post-emergence action against ZEAMX (crop plant compatibility) (Zea mays (ZEAMX)): 20%; Post-emergence action against MATIN in % ([6]; dosage 5 g/ha): 80%; Post-emergence action against SETVI in % (Setaria viridis (SETVI); dosage 5 g/ha): 100%; Post-emergence action against ECHCG in % ([7]; dosage 5 g/ha): 100%; Post-emergence action against ECHCG in % ([7]; dosage 20 g/ha): 100%; Post-emergence action at 20 g/ha against ALOMY in % [8]: 90%
3 | Cn1c(C(F)(F)F)cc(=O)n(-c2cc(Oc3cc(F)ccc3OCC(=O)OCC#N)c(Cl)cc2F)c1=O [I.23-176] | 0% | 10% | 90% | 100% | 100% | 90% | 100% | 100% | 100% | 100% | 100% | 80% | 100% | 100% | 100% | 100% | 100% | 80% | 100% | 100% | Post-emergence action against PHBPU in % ([1]; dosage 1.25 g/ha): 90%; Post-emergence action at 1.25 g/ha against AMARE in % [2]: 100%; Post-emergence action against ORYSA (crop plant compatibility) (Oryza sativa (ORYSA); 5 g/ha): 20%; Post-emergence action against ZEAMX (crop plant compatibility) (Zea mays (ZEAMX)): 20%; Post-emergence action against SETVI in % (Setaria viridis (SETVI); dosage 5 g/ha): 100%; Post-emergence action against ECHCG in % ([7]; dosage 5 g/ha): 100%; Post-emergence action against ECHCG in % ([7]; dosage 20 g/ha): 100%; Post-emergence action at 20 g/ha against ALOMY in % [8]: 100%

Further lines, with some results ahead:

Row | Post-emergence action against ORYSA (crop plant compatibility) (Oryza sativa (ORYSA); 1.25 g/ha) | Post-emergence action against TRZAS (crop plant compatibility) ([5]; 1.25 g/ha) | Structure (SMILES) | Post-emergence action against VIOTR (Viola tricolor (VIOTR); 1.25 g/ha) | Post-emergence action against VIOTR (Viola tricolor (VIOTR); 5 g/ha) | Post-emergence action against VIOTR (Viola tricolor (VIOTR); 20 g/ha) | Post-emergence action against PHBPU in % ([1]; dosage 5 g/ha) | Post-emergence action against PHBPU in % ([1]; dosage 20 g/ha) | Post-emergence action at 5 g/ha against AMARE in % [2] | Post-emergence action at 20 g/ha against AMARE in % [2] | Post-emergence action against POLCO in % ([3]; dosage 5 g/ha) | Post-emergence action against POLCO in % ([3]; dosage 20 g/ha) | Post-emergence action at 1.25 g/ha against ABUTH in % [4] | Post-emergence action at 5 g/ha against ABUTH in % [4] | Post-emergence action at 20 g/ha against ABUTH in % [4] | Post-emergence action against VERPE (Veronica persica (VERPE); 1.25 g/ha) | Post-emergence action against VERPE (Veronica persica (VERPE); 5 g/ha) | Post-emergence action against VERPE (Veronica persica (VERPE); 20 g/ha) | Post-emergence action against MATIN in % ([6]; dosage 20 g/ha) | Post-emergence action against SETVI (Setaria viridis (SETVI)) | Post-emergence action against SETVI in % (Setaria viridis (SETVI); dosage 1.25 g/ha) | other results
4 | 0% | 10% | COCCOCCOC(=O)COc1ccccc1Oc1cc(-n2c(=O)cc(C(F)(F)F)n(C)c2=O)c(F)cc1Br [I.8-23] | 100% | 100% | 100% | 100% | 100% | 100% | 100% | 100% | 100% | 100% | 100% | 100% | 80% | 100% | 100% | 100% | 100% | 100% | Post-emergence action against PHBPU in % ([1]; dosage 1.25 g/ha): 100%; Post-emergence action at 1.25 g/ha against AMARE in % [2]: 100%; Post-emergence action at 20 g/ha against AVEFA in % (Avena fatua (AVEFA)): 80%; Post-emergence action against ORYSA (crop plant compatibility) (Oryza sativa (ORYSA); 5 g/ha): 0%; Post-emergence action against ORYSA in % (Oryza sativa (ORYSA); 20 g/ha, crop plant compatibility): 20%; Post-emergence action against TRZAS (crop plant compatibility) ([5]; 5 g/ha): 20%; Post-emergence action against MATIN in % ([6]; dosage 5 g/ha): 100%; Post-emergence action against SETVI in % (Setaria viridis (SETVI); dosage 5 g/ha): 100%; Post-emergence action against ECHCG in % ([7]; dosage 5 g/ha): 100%; Post-emergence action against ECHCG in % ([7]; dosage 20 g/ha): 100%; Post-emergence action at 5 g/ha against ALOMY in % [8]: 80%; Post-emergence action at 20 g/ha against ALOMY in % [8]: 100%
5 | 0% | 20% | Cn1c(C(F)(F)F)cc(=O)n(-c2cc(Oc3c(F)cccc3OCC(=O)OCc3ccccn3)c(Cl)cc2F)c1=O [I.19-276] | 100% | 100% | 100% | 100% | 100% | 100% | 100% | 100% | 100% | 100% | 100% | 100% | 100% | 100% | 100% | 100% | 100% | 100% | Post-emergence action at 1.25 g/ha against AMARE in % [2]: 100%; Post-emergence action against ORYSA (crop plant compatibility) (Oryza sativa (ORYSA); 5 g/ha): 0%; Post-emergence action against ZEAMX (crop plant compatibility) (Zea mays (ZEAMX)): 20%; Post-emergence action against MATIN in % ([6]; dosage 5 g/ha): 100%; Post-emergence action against SETVI in % (Setaria viridis (SETVI); dosage 5 g/ha): 100%; Post-emergence action against ECHCG in % ([7]; dosage 5 g/ha): 100%; Post-emergence action against ECHCG in % ([7]; dosage 20 g/ha): 100%; Post-emergence action at 20 g/ha against ALOMY in % [8]: 90%
